Test results reported in ChEMBL document CHEMBL1833932, “Design, synthesis and SAR of indazole and benzoisoxazole containing 4-azetidinyl-1-aryl-cyclohexanes as CCR2 antagonists” (Bioorg Med Chem Lett, 2011).
≈ marks a conversion by molar mass, not a printed value.

Tests used:
[1] = biological target: C-C chemokine receptor type 2 (Homo sapiens, UniProt P41597); assay: Displacement of [125I]-MCP1 from human CCR2 receptor in THP1 cells after 2 hrs by scintillation counting; assay type: cell-based, THP-1
[2] = biological target: Voltage-gated inwardly rectifying potassium channel KCNH2 (Homo sapiens, UniProt Q12809)
Description: Displacement of [3H]-astemizole from human ERG in HEK293 cells after 1 hrs by scintillation counting

[3] = Apparent permeability of the compound from apical to basolateral side in human Caco2 cell membrane; assay type: ADME, cell-based; details: Caco-2
[4] = Efflux ratio of permeability from basolateral to apical side over apical to basolateral side in human Caco2 cell membrane; assay type: ADME, cell-based; details: Caco-2
[5] = Apparent permeability of the compound from basolateral to apical side in human Caco2 cell membrane; assay type: ADME, cell-based; details: Caco-2
[6] = Kinetic solubility of the compound at pH 2; assay type: physicochemical; details: buffer, read-out: Kinetic_solubility
hERG (KCNH2) = hERG (KCNH2) (Homo sapiens, UniProt Q12809); assay: in vitro; details: HEK293 cells that express hERG
Sequence of hERG (KCNH2) (Q12809 whole entry): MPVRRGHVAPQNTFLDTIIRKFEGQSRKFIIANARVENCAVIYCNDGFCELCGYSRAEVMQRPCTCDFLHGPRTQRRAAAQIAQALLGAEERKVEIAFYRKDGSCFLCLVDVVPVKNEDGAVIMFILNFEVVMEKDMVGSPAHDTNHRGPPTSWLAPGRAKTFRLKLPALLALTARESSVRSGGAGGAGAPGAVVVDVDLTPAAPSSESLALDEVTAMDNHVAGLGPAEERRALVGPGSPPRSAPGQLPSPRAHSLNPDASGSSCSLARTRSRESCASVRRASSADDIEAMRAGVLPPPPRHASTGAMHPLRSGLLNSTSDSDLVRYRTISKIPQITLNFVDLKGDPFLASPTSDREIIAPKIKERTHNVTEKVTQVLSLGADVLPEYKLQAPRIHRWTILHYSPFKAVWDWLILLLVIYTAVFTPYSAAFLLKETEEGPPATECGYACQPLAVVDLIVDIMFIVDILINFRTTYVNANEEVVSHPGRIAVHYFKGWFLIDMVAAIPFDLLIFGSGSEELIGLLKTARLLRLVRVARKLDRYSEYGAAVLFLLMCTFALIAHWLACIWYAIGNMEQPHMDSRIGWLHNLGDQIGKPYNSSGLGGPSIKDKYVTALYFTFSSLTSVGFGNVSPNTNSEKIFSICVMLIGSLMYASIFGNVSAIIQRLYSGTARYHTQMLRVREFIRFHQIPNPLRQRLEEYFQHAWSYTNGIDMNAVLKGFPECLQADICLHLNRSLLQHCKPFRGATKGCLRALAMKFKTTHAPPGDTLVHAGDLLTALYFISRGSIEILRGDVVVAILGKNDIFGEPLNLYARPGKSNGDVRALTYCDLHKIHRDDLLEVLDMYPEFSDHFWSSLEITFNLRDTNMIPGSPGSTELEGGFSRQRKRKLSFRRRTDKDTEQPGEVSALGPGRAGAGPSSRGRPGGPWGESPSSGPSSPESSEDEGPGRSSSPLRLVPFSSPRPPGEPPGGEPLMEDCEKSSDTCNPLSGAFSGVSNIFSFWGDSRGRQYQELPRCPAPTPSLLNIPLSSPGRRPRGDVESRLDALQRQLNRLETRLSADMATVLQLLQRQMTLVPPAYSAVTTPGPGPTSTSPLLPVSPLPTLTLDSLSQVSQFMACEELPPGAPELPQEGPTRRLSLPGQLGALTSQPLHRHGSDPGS

Sequence of Voltage-gated inwardly rectifying potassium channel KCNH2 (Q12809 whole entry): as above
Sequence of C-C chemokine receptor type 2 (P41597 whole entry): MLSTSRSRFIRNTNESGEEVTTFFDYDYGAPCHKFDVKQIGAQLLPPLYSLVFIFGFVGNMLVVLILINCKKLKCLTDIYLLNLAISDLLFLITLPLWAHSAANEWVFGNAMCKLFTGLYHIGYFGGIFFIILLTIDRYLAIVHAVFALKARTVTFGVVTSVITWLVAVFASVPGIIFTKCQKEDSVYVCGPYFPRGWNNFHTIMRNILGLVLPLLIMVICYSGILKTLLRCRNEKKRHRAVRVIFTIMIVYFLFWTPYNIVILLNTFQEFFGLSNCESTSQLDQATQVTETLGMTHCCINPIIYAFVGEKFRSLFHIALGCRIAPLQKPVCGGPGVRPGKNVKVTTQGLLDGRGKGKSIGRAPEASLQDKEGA

Structure (SMILES)	IC50 [1]	IC50 [2]	further results
C#C[C@H]1CC[C@@H](N2CC(NC(=O)CNc3nn(C)c4ccc(C(F)(F)F)cc34)C2)CC1	10 µM	> 50 µM	
O=C(Cn1[nH]c2ccc(C(F)(F)F)cc2c1=O)NC1CN([C@H]2CC[C@@H](c3ccccc3)CC2)C1	5.4 µM		
O=C(CSc1n[nH]c2ccc(C(F)(F)F)cc12)NC1CN([C@H]2CC[C@@H](c3ccccc3)CC2)C1	0.29 µM		
O=C(COc1n[nH]c2ccc(C(F)(F)F)cc12)NC1CN([C@H]2CC[C@@H](c3ccccc3)CC2)C1	0.51 µM		
O=C(CNc1n[nH]c2ccc(C(F)(F)F)cc12)NC1CN([C@H]2CC[C@@H](c3ccc4c(c3)OCO4)CC2)C1	0.006 µM		
NC(=O)Cc1ccc([C@H]2CC[C@@H](N3CC(NC(=O)CNc4n[nH]c5ccc(C(F)(F)F)cc45)C3)CC2)cc1	0.012 µM	9.5 µM	
Cn1nc(NCC(=O)NC2CN([C@H]3CC[C@@H](c4ccc5c(c4)OCO5)CC3)C2)c2cc(C(F)(F)F)ccc21	0.013 µM		
O=C(CNc1n[nH]c2ccc(C(F)(F)F)cc12)NC1CN([C@H]2CC[C@@H](n3ccccc3=O)CC2)C1	0.063 µM		
CC(C)[C@H]1CC[C@@H](N2CC(NC(=O)CNc3n[nH]c4ccc(C(F)(F)F)cc34)C2)CC1	0.37 µM	6.2 µM	
Cn1nc(NCC(=O)NC2CN([C@H]3CC[C@@H](C#N)CC3)C2)c2cc(C(F)(F)F)ccc21	0.33 µM		
Cn1nc(NCC(=O)NC2CN([C@H]3CC[C@@H](C4CCCCC4)CC3)C2)c2cc(C(F)(F)F)ccc21	0.12 µM		
CCOC(=O)[C@H]1CC[C@@H](N2CC(NC(=O)CNc3nn(C)c4ccc(C(F)(F)F)cc34)C2)CC1	0.013 µM	8 µM	
Cn1nc(NCC(=O)NC2CN([C@H]3CC[C@@H](C(=O)O)CC3)C2)c2cc(C(F)(F)F)ccc21	2.6 µM	25 µM	
Cn1nc(NCC(=O)NC2CN([C@H]3CC[C@@H](C(N)=O)CC3)C2)c2cc(C(F)(F)F)ccc21	0.51 µM	32 µM	
Cn1nc(NCC(=O)NC2CN([C@H]3CC[C@@H](CO)CC3)C2)c2cc(C(F)(F)F)ccc21	0.044 µM		
CCOC[C@H]1CC[C@@H](N2CC(NC(=O)CNc3nn(C)c4ccc(C(F)(F)F)cc34)C2)CC1	0.027 µM	5.6 µM	
O=C(CNc1n[nH]c2ccc(C(F)(F)F)cc12)NC1CN([C@H]2CC[C@@H](O)CC2)C1	0.53 µM	30 µM	
N[C@H]1CC[C@@H](N2CC(NC(=O)CNc3n[nH]c4ccc(C(F)(F)F)cc34)C2)CC1	> 25 µM	> 50 µM	

Structure (SMILES)	IC50 [1]	IC50 [2]	further results
CS(=O)(=O)N[C@H]1CC[C@@H](N2CC(NC(=O)CNc3n[nH]c4ccc(C(F)(F)F)cc34)C2)CC1	2.08 µM		
O=C(CNc1noc2ccc(C(F)(F)F)cc12)NC1CN([C@H]2CC[C@@H](c3ccc4c(c3)OCO4)CC2)C1	0.036 µM	1.9 µM	
CC(C)(C)NC(=O)n1nc(NCC(=O)NC2CN([C@H]3CC[C@@H](c4ccc5c(c4)OCO5)CC3)C2)c2cc(C(F)(F)F)ccc21	0.055 µM		
NC(=O)n1nc(NCC(=O)NC2CN([C@H]3CC[C@@H](c4ccc5c(c4)OCO5)CC3)C2)c2cc(C(F)(F)F)ccc21	0.082 µM	12 µM	Papp A→B [3]: 1.5 nm/s; efflux ratio [4]: 16.2; Papp B→A [5]: 24.4 nm/s; solubility kinetic [6]: 3.5 µM (≈ 1.95 µg/mL)
CCOC(=O)[C@H]1CC[C@@H](N2CC(NC(=O)CNc3n[nH]c4ccc(C(F)(F)F)cc34)C2)CC1	0.027 µM	9.1 µM	
CCOC(=O)[C@H]1CC[C@@H](N2CC(NC(=O)CNc3noc4ccc(C(F)(F)F)cc34)C2)CC1	0.029 µM		
C=CCn1nc(NCC(=O)NC2CN([C@H]3CC[C@@H](C(=O)OCC)CC3)C2)c2cc(C(F)(F)F)ccc21	0.022 µM		
CCOC(=O)[C@H]1CC[C@@H](N2CC(NC(=O)CNc3nn(CC(F)(F)F)c4ccc(C(F)(F)F)cc34)C2)CC1	0.23 µM	2.5 µM	
CCOC(=O)[C@H]1CC[C@@H](N2CC(NC(=O)CNc3nn(C(N)=O)c4ccc(C(F)(F)F)cc34)C2)CC1	0.056 µM	20 µM	Papp A→B [3]: 3.2 nm/s; efflux ratio [4]: 10.9; Papp B→A [5]: 35 nm/s; solubility kinetic [6]: 8.9 µM (≈ 4.54 µg/mL)
CCOC(=O)[C@H]1CC[C@@H](N2CC(NC(=O)CNc3nn(S(C)(=O)=O)c4ccc(C(F)(F)F)cc34)C2)CC1	0.92 µM	25 µM	
CCOC(=O)[C@H]1CC[C@@H](N2CC(NC(=O)CNc3nn(C4CCCC4)c4ccc(C(F)(F)F)cc34)C2)CC1	0.65 µM	4.1 µM	
Cc1ccc([C@H]2CC[C@@H](N3CC(NC(=O)CNc4n[nH]c5ccc(C(F)(F)F)cc45)C3)CC2)cn1	0.006 µM	27 µM	inhibition at 5 min, 3 µM (hERG (KCNH2)): 23%
O=C(CNc1nn(CCO)c2ccc(C(F)(F)F)cc12)NC1CN([C@H]2CC[C@@H](c3nccs3)CC2)C1	0.029 µM		
Cn1nc(NCC(=O)NC2CN([C@H]3CC[C@@H](c4ncco4)CC3)C2)c2cc(C(F)(F)F)ccc21	0.48 µM		
COc1ccc([C@]2(O)CC[C@H](N3CC(NC(=O)CNc4n[nH]c5ccc(C(F)(F)F)cc45)C3)CC2)cn1	0.016 µM	32 µM	inhibition at 5 min, 3 µM (hERG (KCNH2)): 30%
O=C(CNc1n[nH]c2ccc(C(F)(F)F)cc12)NC1CN([C@H]2CC[C@@H](c3ccccc3)CC2)C1 (stereo in doubt; 5)			IC50 ([1]; thp-1): 0.012 µM
O=C(CNc1n[nH]c2ccc(C(F)(F)F)cc12)NC1CN([C@H]2CC[C@@H](c3ccccc3)CC2)C1 (stereo in doubt; 13a)	0.012 µM	1.2 µM	
